Experimental data taken from article PMC7899551, “Phase 1 study of Z-endoxifen in patients with advanced gynecologic, desmoid, and hormone receptor-positive solid tumors” (Oncotarget, 2021).

Assay: Urinary excretion of Z-endoxifen over a 24-hour collection
Type: in vivo, human
Experimental: A 3-mL blood sample was collected in a K2 EDTA tube on day 1 of cycle 1 before drug administration and at the following times post-first dose: 0.5, 1, 2, 3, 4, 6, 8, and 24 hours. Samples were collected at the same time points on day 28 of cycle 1 for DL1-6 until a protocol amendment eliminated the requirement for these samples at the higher dose levels. Samples were wrapped in aluminum foil after collection to protect from light exposure. A 10-mL aliquot of urine was collected before agent administration on cycle 1 day 1, for 24 hours after dosing on day 1, and before drug administration on cycle 2 day 1; samples were refrigerated prior to analysis.
Plasma and urine concentrations of Z- and E-endoxifen were measured using a validated, post-column fluorescence derivatization HPLC assay. Non-compartmental pharmacokinetic parameters were calculated using WinNonlin version 7.0 (Pharsight Corp., Mountainview, CA, USA). A 2 μM Cmax target was established for day 28 plasma concentration. The amount of Z-endoxifen excreted in urine was measured over a 24-hour collection period.

SMILES: CC/C(=C(\c1ccc(O)cc1)c1ccc(OCCNC)cc1)c1ccccc1 [Z-endoxifen]
- amount excreted in the urine: < 0.26 % of dose
